{"source": "patent US20040235717A1", "about": "“Suppression of androgen receptor transactivation through new pathways to ar and ar coactivators and repressors” (priority 2001, published 2004)", "key": {"LNCaP cells": {"system": "LNCaP cells", "assay": "DHT/TPA-induced apoptosis in LNCaP cells, TUNEL assay", "assay_type": "cell-based", "conditions": "for LNCaP cell apoptosis, agent per se: 10 nM DHT or 1 nM TPA alone", "experimental": "(§1) 18. […] (A) Akt suppressed androgen/AR-induced p21 promoter activity. […] (B) Androgen/AR-induced PC-3(AR)6 apoptosis and p21 protein expression was blocked by Akt PC-3(AR)6 was transfected with pCDNA3, cAkt, or dAkt, as indicated, for 16 h. […] (C) AR-induced p21 protein expression was enhanced by dAkt in LNCaP cells. […] LNCaP stable transfection with dAkt was confirmed by western blot assay using phospho-Akt (Ser473) antibody. […] TPA was then added for another 24 h and cell apoptosis was determined by TUNEL assay. […] IGF-1 was added for another 30 min, followed by 10 nM TPA treatment for another 24 h. The apoptosis was determined by TUNEL assay. The data are means±s.d. from three independent experiments.\n(§2) 281. The TUNEL assay was performed to measure the cell apoptosis according to the standard procedures (Oncogene Research Products). At least 200 cells were scored for each sample and the data are means±s.d. from three independent experiments."}, "p21 expression": {"system": "p21 expression", "assay": "p21 promoter activity (luciferase) and p21 protein expression", "assay_type": "cell-based", "conditions": "PC-3 cells; 10 nM DHT", "experimental": "as §1"}, "[1]": {"system": "wtAR, mtARt877a, PR, VDR, ER transactivation", "assay": "Steroid receptor transactivation with Smad3 in DU145 cells (wtAR, mtARt877a, PR, VDR, ER)", "assay_type": "cell-based, human", "conditions": "for wtAR transactivation response to ligand: DHT 10 nM, HF 1 μM, E2 10 nM"}, "IL-6 protein expression": {"system": "IL-6 protein expression", "assay": "IL-6 secretion by LNCaP cells (ELISA)", "assay_type": "cell-based", "experimental": "11. […] IL-6 secretion in the medium was determined by ELISA. […] LNCaP cells, were serum starved for 24 h. […] PI3K activity was measured using PI as a substrate. The origin (ori) of the chromatogram and PI3-phosphate (PI3P) were indicated.\n259. […] The IL-6 protein level in the supernatants was then evaluated by BLISA."}, "PSA mRNA expression": {"system": "PSA mRNA expression", "assay": "PSA mRNA expression in LNCaP cells, Northern blot", "assay_type": "cell-based"}, "PI3K": {"system": "PI3K", "assay": "PI3K activity assay using phosphatidylinositol as substrate", "assay_type": "cell-based, human", "conditions": "LNCaP", "experimental": "(§3) 251. IL-6's effect on PI3K activity was tested. After serum starvation for 24 h, LNCaP, PC-3 or DU145 cells were treated with 50 μg/ml IL-6 for 30 minutes. The cells were then harvested. PI3K activity was measured by using phosphatidylinositol (PT) as a substrate. […] The transactivation was measured by CAT activity.\n260. […] PI3K activity was measured using PI as a substrate.\n265. PI3K activity was determined as previously described. Vlahos, C. J. et al, J. Biol. Chem. 269, 5241-5148 (1994)."}, "[2]": {"system": "PC-3(AR)2, PC-3(AR)6, SAR-91 cells", "assay": "Androgen/AR-induced apoptosis, TUNEL assay in PC-3(AR)2, PC-3(AR)6 and SAR-91 cells", "assay_type": "cell-based", "conditions": "HF 5 μM, IGF-1 100 ng/ml, DHT 10 nM, 3 days", "from_the_text": "17. […] (A) PC-3(AR)2 and PC-3(AR)6 expressed AR protein. PC-3 cells were stably transfected with AR, followed by selection with hygromycin B, and confirmed by western blotting using AR antibody NH27, while LNCaP was used as a positive control. (B) Androgen/AR-induced apoptosis in PC-3(AR)2, PC-3(AR)6, and SAR-91 were inhibited by PI(3)K/Akt pathway. […] The data are means±s.d. from three independent experiments.\nas §1, §2"}, "AR transactivation [3]": {"system": "AR transactivation", "assay": "AR transactivation with TSA, MMTV-LUC in PC3-AR2 cells", "assay_type": "cell-based"}, "Akt / AR phosphorylation": {"system": "Akt / AR phosphorylation", "assay": "Akt activation and in vivo AR phosphorylation in COS-1 cells", "assay_type": "cell-based", "experimental": "14. […] COS-1 cells were pretreated with ethanol or 20 μM LY294002 for 30 min, followed by treatment with 100 ng/ml IGF-1 for 30 min. The total cell lysates were immunoprecipitated by anti-Akt antibody (New England Biolabs). The immunocomplex was subjected to SDS-PAGE, followed by immunoblot with phospho-Akt (S473) antibody or Akt antibody. (B) IGF-1 phosphorylates AR in vivo via Akt. COS-1 cells were cultured in [^32P]-PO4-containing medium. AR immunocomplex was subjected to SDS-PAGE followed by autoradiography. Immunobloting confirmed equivalent amounts of AR in immunocomplex. (C) cAkt, but not dAkt, phosphorylates wtAR, but not mtAR S210A and mtAR S790A in vivo. COS-1 cells were transfected with wtAR, mtAR S210A, or mtAR S790A in combination with PCDNA3 vector, cAkt, or dAkt. After 24 h transfection, cells were labeled with [^32P]-PO4 for 4 h. (D) Suppression of AR transactivation by Akt in a dose-dependent manner. […] Transactivation was measured by CAT activity using MMTV-CAT as a reporter. (E) mtAR S210A is resistant to Akt suppressive effect on AR transactivation. DU145 cells were transfected with plasmids encoding wtAR, mtAR S210A or mtAR S790A in presence of cAkt or dAkt for 24 h. Ligand treatment and AR transactivation were performed as previously described. The data are means±s.d. from three independent experiments.\n282. […]"}, "AR transactivation [4]": {"system": "AR transactivation", "assay": "AR transactivation, MMTV-CAT reporter in DU145 cells transfected with AR", "assay_type": "cell-based, human", "from_the_text": "250. To dissect the divergent effects of IL-6 in prostate tumor growth, Qui, Y. et al., Nature 393, 83-85 (1998); Hobisch, A. et al., Cancer Res. 58, 4640-4645 (1998); Ritchie, C. K. et al., Endocrinology 138, 1145-1150 (1997), the potential influences of IL-6 on the transactivation of AR, the master regulator of the prostate tumor growth were studied. Chang, C. et al., Science 240, 324.326 (1988); Chang, C. et al., Crit. Rev. Eukaryotic Gene Expression 5, 97-125 (1995). Because IL-6 has two major signal cascades, mitogen-activated protein kinase (MAPK) and phosphatidylinositol 3-kinase (PI3K), Qui, Y. et al., Nature 393, 83-85 (1998); Qui, Y. et al., Proc. Natl. Acad. Sci. USA 95, 3644-3649 (1998), inhibitors were applied to specifically block one of these two IL-6 signal pathways. DU145 cells were transfected for 24 h with AR and MMTV-CAT reporter gene. After transfection, the cells were serum starved for 24 h. Next, 20 μM LY294002, P098059 or vehicle was added to serum-free medium 30 min prior to IL-6 treatment. […] The cells were then harvested and AR transactivation was measured by CAT activity. […] Vlahos, C. J. et al., J. Biol. Chem. 269, 5241-5148 (1994). […] Alessi, D. R. et al., J. Biol. Chem. 270, 27489-27494 (1995).\nas §3\n252. Focus then turned to the two major downstream effectors of PI3K: a serine/threonine kinase (Akt/PKB) and a ribosomal S6 kinase (p70S6k). Franke, T. F. et al., Cell 88,435-437 (1997). […] The transactivation activity was determined after 24 h transfection.\n262. The DU145 and PC-3 cells were maintained in Dulbecco's Minimum Essential Medium (DMEM) containing penicillin (25 μg/m1), streptomycin (25 μg/ml), and 5% fetal calf serum (FCS). The LNCaP cells were maintained in RPMI-1640 with 10% FCS. Transfections were performed using the calcium phosphate precipitation method, as previously described. Yeh, S. et al., Proc. Natl. Acad. Sci. USA 93, 5517-5521(1996).\n277. The DU145 and PC-3 cells were maintained in Dulbecco's Minimum Essential Medium (DMEM) containing penicillin (25 U/ml), streptomycin (25 μg/ml), and 5% fetal calf serum (FCS). The LNCaP cells were maintained in RPMI-1640-10% FCS. Transfections were performed using the calcium phosphate precipitation method in PC-3 and DU145, as previously described. Yeh, S., Lin, H. K., Kang, H. Y., Thin, T. H., Lin, M. F. & Chang, C. (1999) Proc Natl Acad Sci U S A 96, 5458-63. LNCaP cells were transfected using SuperFect™ according to standard procedures (Qiagen)."}, "AR transactivation [5]": {"system": "AR transactivation", "assay": "AR transactivation, MMTV-luc / (ARE)4-luc luciferase reporter assay", "assay_type": "cell-based", "conditions": "LNCaP MMTV-luc and CWR22 (ARE)4-luc"}, "AR protein levels": {"system": "AR protein levels", "assay": "AR protein (Western blot) and AR mRNA (Northern blot) levels", "assay_type": "cell-based", "conditions": "LNCaP, transfected"}}, "note": "Entries after “also recorded” stand apart in the source; their conditions may differ."}
{"compound": "C[C@]12CCC(=O)C[C@@H]1CC[C@@H]1[C@@H]2CC[C@]2(C)[C@@H](O)CC[C@@H]12", "note": "[DHT, 5α-dihydrotestosterone, reference compound]", "values": [{"measurement": "LNCaP cell apoptosis, agent per se", "setting": "LNCaP cells", "value": "only marginal effects on apoptosis"}, {"measurement": "p21 promoter activity", "setting": "p21 expression", "value": "induce p21 promoter activity"}, {"measurement": "wtAR transactivation response to ligand", "setting": "[1]", "value": "responded well"}, {"measurement": "IL-6 protein expression", "setting": "IL-6 protein expression; 0, 1, 10 or 50 nM DHT 24 h, then 160 nM PMA 24 h", "value": "reduced by DHT in a dose-dependant manner"}, {"measurement": "PSA mRNA expression", "setting": "PSA mRNA expression; 10 nM DHT", "value": "induced PSA mRNA expression; also recorded: increases PSA mRNA expression"}, {"measurement": "IL-6-induced PI3K activity", "setting": "PI3K; DHT and IL-6 for 30 min", "value": "repress PI3K activity significantly"}]}
{"compound": "CC(C)(O)C(=O)Nc1ccc([N+](=O)[O-])c(C(F)(F)F)c1", "note": "[HF, hydroxyflutamide]", "values": [{"measurement": "Effect on androgen-induced apoptosis", "setting": "[2]", "value": "inhibition of androgen-induced apoptosis"}, {"measurement": "Effect on DHT/TPA-induced apoptosis", "setting": "LNCaP cells; LNCaP parent cells", "value": "repress this DHT/TPA-mediated apoptosis"}, {"measurement": "mtARt877a transactivation response to ligand", "setting": "[1]", "value": "responded much better"}, {"measurement": "wtAR transactivation response to ligand", "setting": "[1]", "value": "respond marginally"}, {"measurement": "Effect on DHT repression of IL-6 protein expression", "setting": "IL-6 protein expression", "value": "reverse this induction"}, {"measurement": "Effect on Smad3-enhanced PSA induction", "setting": "PSA mRNA expression", "value": "partially repressed"}]}
{"compound": "CCCC(=O)[O-].[Na+]", "note": "[NaB]", "values": [{"measurement": "Effect on Smad3/Smad4-suppressed AR transactivation", "setting": "AR transactivation [3]", "value": "reverse Smad3/Smad4-repressed AR transactivation"}]}
{"compound": "CCCCCCCCCCCCCC(=O)O[C@@H]1[C@@H](C)[C@@]2(O)[C@@H](C=C(CO)C[C@]3(O)C(=O)C(C)=C[C@@H]23)[C@H]2C(C)(C)[C@]12OC(C)=O", "note": "[TPA, 12-0-tetradecanoyl phorbol-13-acetate]", "values": [{"measurement": "LNCaP cell apoptosis, agent per se", "setting": "LNCaP cells", "value": "only marginal effects on apoptosis"}]}
{"compound": "IGF-1: insulin-like growth factor-1", "values": [{"measurement": "Akt activation (phospho-Akt S473)", "setting": "Akt / AR phosphorylation; 100 ng/ml IGF-1 30 min", "value": "Activation of Akt"}, {"measurement": "AR phosphorylation in vivo", "setting": "Akt / AR phosphorylation; [32P] labeling", "value": "strongly induced AR phosphorylation"}, {"measurement": "Effect on androgen-induced apoptosis", "setting": "[2]", "value": "repress androgen-induced apoptosis"}, {"measurement": "Effect on DHT/TPA-induced apoptosis", "setting": "LNCaP cells; LNCaP cells stably transfected with dAkt", "value": "only marginal suppressive effects"}, {"measurement": "Effect on DHT/TPA-induced apoptosis", "setting": "LNCaP cells; LNCaP parent cells", "value": "partially repressed DHT/TPA-induced apoptosis"}]}
{"compound": "IL-6: a pleiotropic cytokine", "values": [{"measurement": "Effect of IL-6 on AR transactivation (CAT activity)", "setting": "AR transactivation [4]; MAPK pathway inhibited by 20 μM P098059 30 min prior to IL-6", "value": "repress AR transactivation"}, {"measurement": "Effect of IL-6 on AR transactivation (CAT activity)", "setting": "AR transactivation [4]; PI3K pathway inhibited by 20 μM LY294002 30 min prior to IL-6", "value": "enhance AR transactivation"}, {"measurement": "Effect of IL-6 on AR transactivation (CAT activity)", "setting": "AR transactivation [4]; none of the MAPK and PI3K pathways blocked, DHT 24 h", "value": "very limited effect"}, {"measurement": "PI3K activity", "setting": "PI3K; PC-3, DU145 cells, 50 μg/ml IL-6 for 30 min", "value": "increase PI3K activity"}]}
{"compound": "PTEN-PTP: PTEN peptide (aa, 110-163) containing the phosphatase domain (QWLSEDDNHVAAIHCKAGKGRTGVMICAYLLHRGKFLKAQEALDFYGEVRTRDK; left off: a dimerising Fc or GST)", "values": [{"measurement": "Effect on AR transactivation", "setting": "AR transactivation [5]", "value": "suppress of AR transactivation"}, {"measurement": "AR degradation", "setting": "AR protein levels", "value": "promote AR degradation"}]}
